Experimental data from patent US20060229433A1, “Modified antiviral peptides with increased activity and cell membrane affinity” (priority 2003, published 2006).
Values joined by “and” are separate entries in the source; they are usually repeats but may differ in a detail not shown here. Equal entries are not always repeated. Square brackets hold non-standard residues; d marks the D form. Peptide text beside a SMILES is read from it. Ava = NCCCCC(=O)O

Assays:
Type in all cases: cell-based
[1] = system: HIV-1 NL 4-3; assay: HIV-1 infection of C8166 cells (syncytia formation, p24 ELISA) with HIV-1 NL 4-3; set-up: key to syncitia formed, Day 4 / syncitia formed, Day 5 / syncitia formed, Day 6 / syncitia formed, Day 7: ++, +, (+), (+)− and − represent decreasing numbers of syncitia formed; ++, +, (+), (+)− and − represent decreasing numbers of syncitia formed; ++, +, (+), (+)− and − represent decreasing numbers of syncitia formed; ++, +, (+), (+)− and − represent decreasing numbers of syncitia formed; ++, +, (+), (+)− and − represent decreasing numbers of syncitia formed
How it was run: (§1)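 Infection was read out as syncytia and as cell-free p24 in supernatants (ELISA) from C8166 cells that received HIV-1 (1000 TCID50/ml, 1 h, 37 °C) after a 1 h peptide pretreatment. Peptide stayed on before, during and after adsorption. Toxicity was checked by daily trypan-blue counts.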

[2] = system: HIV-1 NDK; assay: HIV-1 infection of C8166 cells (syncytia formation, p24 ELISA) with HIV-1 NDK; set-up: key to syncitia formed, Day 4 / syncitia formed, Day 5 / syncitia formed, Day 6 / syncitia formed, Day 7: ++, +, (+), (+)− and − represent decreasing numbers of syncitia formed; ++, +, (+), (+)− and − represent decreasing numbers of syncitia formed; ++, +, (+), (+)− and − represent decreasing numbers of syncitia formed; ++, +, (+), (+)− and − represent decreasing numbers of syncitia formed; ++, +, (+), (+)− and − represent decreasing numbers of syncitia formed; conditions: for P 24: P 24 after Day 7
How it was run: as §1

[3] = system: HIV-1 NL 4-3; assay: HIV-1 infection of C8166 cells (syncytia formation, p24 ELISA) with HIV-1 NL 4-3; set-up: key: ++, +, (+), (+)− and − represent decreasing numbers of syncitia formed; ++, +, (+), (+)− and − represent decreasing numbers of syncitia formed; ++, +, (+), (+)− and − represent decreasing numbers of syncitia formed; ++, +, (+), (+)− and − represent decreasing numbers of syncitia formed; ++, +, (+), (+)− and − represent decreasing numbers of syncitia formed; conditions: Table 6
How it was run: as §1

Q: What does the source list for `C[C@H](NC(=O)[C@H](CCCNC(=N)N)NC(=O)CNC(=O)[C@@H]1CCCN1C(=O)CN)C(=O)NCCCCC(=O)O` [GPGRA valeric acid, GPGRA-NHCH2CH2CH2CH2COOH] (H-GPGRA[Ava]-OH; N-terminus assumed)?
A: Day 7 syncitia formed ([1]; 0.005 μM, Table 6): ++/T; syncitia formed, Day 4 ([1]; 0.01 μM, C8166 cells): −; syncitia formed, Day 5 ([1]; 0.01 μM, C8166 cells): +; syncitia formed, Day 6 ([1]; 0.01 μM, C8166 cells): ++; syncitia formed, Day 7 ([1]; 0.01 μM, Day 7, C8166 cells): ++; P 24 ([1]; 0.01 μM, P 24 after Day 7, C8166 cells): 13870 pg/mL and 11810 pg/mL; syncitia formed, Day 4 ([1]; 0.05 μM, C8166 cells): −; syncitia formed, Day 5 ([1]; 0.05 μM, C8166 cells): (+); syncitia formed, Day 6 ([1]; 0.05 μM, C8166 cells): +; syncitia formed, Day 7 ([1]; 0.05 μM, Day 7, C8166 cells): +; syncitia formed, Day 4 ([1]; 0.1 μM, C8166 cells): −; syncitia formed, Day 5 ([1]; 0.1 μM, C8166 cells): −; syncitia formed, Day 6 ([1]; 0.1 μM, C8166 cells): (+); syncitia formed, Day 7 ([1]; 0.1 μM, Day 7, C8166 cells): +; P 24 ([1]; 0.1 μM, P 24 after Day 7, C8166 cells): 2356 pg/mL and 2416 pg/mL; syncitia formed, Day 4 ([1]; 0.5 μM, C8166 cells): −; syncitia formed, Day 5 ([1]; 0.5 μM, C8166 cells): −; syncitia formed, Day 6 ([1]; 0.5 μM, C8166 cells): −; syncitia formed, Day 7 ([1]; 0.5 μM, Day 7, C8166 cells): (+); syncitia formed, Day 4 ([1]; 1 μM, C8166 cells): −; syncitia formed, Day 5 ([1]; 1 μM, C8166 cells): −; syncitia formed, Day 6 ([1]; 1 μM, C8166 cells): −; syncitia formed, Day 7 ([1]; 1 μM, Day 7, C8166 cells): −; P 24 ([1]; 1 μM, P 24 after Day 7, C8166 cells): 13 pg/mL and 10 pg/mL; syncitia formed, Day 4 ([1]; 5 μM, C8166 cells): −; syncitia formed, Day 5 ([1]; 5 μM, C8166 cells): −; syncitia formed, Day 6 ([1]; 5 μM, C8166 cells): −; syncitia formed, Day 7 ([1]; 5 μM, Day 7, C8166 cells): −; P 24 ([1]; 5 μM, P 24 after Day 7, C8166 cells): 2.7 pg/mL and 3 pg/mL; IC50 ([1]; C8166 cells, HIV-1 subtype B NL 4-3, Table 9, two lines = tested twice, 8 days apart): 10 nM; P 24 ([1]; Day 7, 0.005 μM, Table 6): 23810 pg/mL; P 24 ([1]; Day 7, 0.01 μM, Table 6): 13030 pg/mL and 13810 pg/mL; P 24 ([1]; Day 7, 0.05 μM, Table 6): 6830 pg/mL and 3820 pg/mL; P 24 ([1]; Day 7, 0.5 μM, Table 6): 2 pg/mL and 2.2 pg/mL; P 24 ([1]; Day 7, 1 μM, Table 6): 2.3 pg/mL and 1.9 pg/mL; P 24 ([1]; Day 7, 5 μM, Table 6): 2.7 pg/mL and 1.8 pg/mL; syncitia formed, Day 4 ([2]; 0.005 μM): (+); syncitia formed, Day 5 ([2]; 0.005 μM): +; syncitia formed, Day 6 ([2]; 0.005 μM): ++; syncitia formed, Day 7 ([2]; 0.005 μM): ++; P 24 ([2]; 0.005 μM): 23810 pg/mL; syncitia formed, Day 4 ([2]; 0.01 μM): −; syncitia formed, Day 5 ([2]; 0.01 μM): +; syncitia formed, Day 6 ([2]; 0.01 μM): ++; syncitia formed, Day 7 ([2]; 0.01 μM): ++; P 24 ([2]; 0.01 μM): 13810 pg/mL and 18710 pg/mL; syncitia formed, Day 4 ([2]; 0.05 μM): −; syncitia formed, Day 5 ([2]; 0.05 μM): (+); syncitia formed, Day 6 ([2]; 0.05 μM): ++; syncitia formed, Day 7 ([2]; 0.05 μM): ++; syncitia formed, Day 4 ([2]; 0.1 μM): −; syncitia formed, Day 5 ([2]; 0.1 μM): (+); syncitia formed, Day 6 ([2]; 0.1 μM): ++; syncitia formed, Day 7 ([2]; 0.1 μM): ++; P 24 ([2]; 0.1 μM): 5600 pg/mL and 6400 pg/mL; syncitia formed, Day 4 ([2]; 0.5 μM): −; syncitia formed, Day 5 ([2]; 0.5 μM): −; syncitia formed, Day 6 ([2]; 0.5 μM): +; syncitia formed, Day 7 ([2]; 0.5 μM): ++; syncitia formed, Day 4 ([2]; 1 μM): −; syncitia formed, Day 5 ([2]; 1 μM): −; syncitia formed, Day 6 ([2]; 1 μM): −; syncitia formed, Day 7 ([2]; 1 μM): +; P 24 ([2]; 1 μM): 2000 pg/mL and 2403 pg/mL; syncitia formed, Day 4 ([2]; 5 μM): −; syncitia formed, Day 5 ([2]; 5 μM): −; syncitia formed, Day 6 ([2]; 5 μM): −; syncitia formed, Day 7 ([2]; 5 μM): − and (+); IC50 ([2]; HIV 1 NDK, Table 10): > 5000 nM; IC100 ([2]; HIV 1 NDK, Table 10): 5 µM; Day 4 syncitia formed ([3]; 0.005 μM): −; Day 5 syncitia formed ([3]; 0.005 μM): +; Day 6 syncitia formed ([3]; 0.005 μM): ++; Day 4 syncitia formed ([3]; 0.01 μM): −; Day 5 syncitia formed ([3]; 0.01 μM): +; Day 6 syncitia formed ([3]; 0.01 μM): ++; Day 7 syncitia formed ([3]; 0.01 μM): ++; Day 4 syncitia formed ([3]; 0.05 μM): −; Day 5 syncitia formed ([3]; 0.05 μM): (+); Day 6 syncitia formed ([3]; 0.05 μM): +; Day 7 syncitia formed ([3]; 0.05 μM): +; Day 4 syncitia formed ([3]; 0.1 μM): −; Day 5 syncitia formed ([3]; 0.1 μM): (+); Day 6 syncitia formed ([3]; 0.1 μM): +; Day 7 syncitia formed ([3]; 0.1 μM): +; Day 4 syncitia formed ([3]; 0.5 μM): −; Day 5 syncitia formed ([3]; 0.5 μM): −; Day 6 syncitia formed ([3]; 0.5 μM): −; Day 7 syncitia formed ([3]; 0.5 μM): −; Day 4 syncitia formed ([3]; 1 μM): −; Day 5 syncitia formed ([3]; 1 μM): −; Day 6 syncitia formed ([3]; 1 μM): −; Day 7 syncitia formed ([3]; 1 μM): −; Day 4 syncitia formed ([3]; 5 μM): −; Day 5 syncitia formed ([3]; 5 μM): −; Day 6 syncitia formed ([3]; 5 μM): −; Day 7 syncitia formed ([3]; 5 μM): −
